Experimental findings from ChEMBL document CHEMBL2086238, “Identification of ETP-46321, a potent and orally bioavailable PI3K α, δ inhibitor” (Bioorg Med Chem Lett, 2012) are described below.

Data set [1] deals with Phosphatidylinositol 4,5-bisphosphate 3-kinase catalytic subunit gamma isoform (Homo sapiens, UniProt P48736). The experiment in a line: Inhibition of human PI3Kgamma by ADP accumulation based HTRF assay. The following applies: read-out: Ki(app). On the technique in general: TR-FRET usually uses a lanthanide donor and a delayed reading to cut background.
Phosphatidylinositol 4,5-bisphosphate 3-kinase catalytic subunit gamma isoform, sequence (P48736 whole entry, canonical isoform): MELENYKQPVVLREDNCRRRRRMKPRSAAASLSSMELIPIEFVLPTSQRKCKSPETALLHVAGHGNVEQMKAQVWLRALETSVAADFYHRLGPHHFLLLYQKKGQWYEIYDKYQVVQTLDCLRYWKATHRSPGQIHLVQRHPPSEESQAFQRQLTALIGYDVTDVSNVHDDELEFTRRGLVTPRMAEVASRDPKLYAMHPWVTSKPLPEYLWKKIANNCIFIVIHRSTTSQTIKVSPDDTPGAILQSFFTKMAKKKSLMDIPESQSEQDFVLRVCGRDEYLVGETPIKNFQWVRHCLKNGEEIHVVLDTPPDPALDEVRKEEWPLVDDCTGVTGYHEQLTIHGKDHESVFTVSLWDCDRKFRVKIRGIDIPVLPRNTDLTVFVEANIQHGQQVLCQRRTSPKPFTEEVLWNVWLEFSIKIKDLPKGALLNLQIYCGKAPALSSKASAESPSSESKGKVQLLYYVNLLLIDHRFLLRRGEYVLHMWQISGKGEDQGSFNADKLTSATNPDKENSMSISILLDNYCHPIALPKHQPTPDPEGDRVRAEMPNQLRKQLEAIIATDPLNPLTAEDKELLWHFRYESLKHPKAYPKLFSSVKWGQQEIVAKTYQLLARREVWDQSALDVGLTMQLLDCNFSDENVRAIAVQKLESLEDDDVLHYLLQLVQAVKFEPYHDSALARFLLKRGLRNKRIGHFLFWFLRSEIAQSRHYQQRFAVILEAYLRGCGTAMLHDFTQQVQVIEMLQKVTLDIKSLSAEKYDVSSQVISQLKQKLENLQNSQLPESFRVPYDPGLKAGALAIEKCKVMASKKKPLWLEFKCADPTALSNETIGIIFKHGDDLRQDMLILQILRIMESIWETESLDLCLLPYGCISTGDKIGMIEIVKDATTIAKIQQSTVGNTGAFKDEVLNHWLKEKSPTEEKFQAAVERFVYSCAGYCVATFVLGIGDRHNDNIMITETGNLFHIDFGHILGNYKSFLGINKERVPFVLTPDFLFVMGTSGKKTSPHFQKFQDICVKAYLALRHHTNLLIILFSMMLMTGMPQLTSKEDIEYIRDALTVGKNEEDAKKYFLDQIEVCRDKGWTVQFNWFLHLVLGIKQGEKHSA
Data set [2] has as its target T1, Serine/threonine-protein kinase 4 (Homo sapiens) (UniProt Q13043).
T1 sequence (whole entry): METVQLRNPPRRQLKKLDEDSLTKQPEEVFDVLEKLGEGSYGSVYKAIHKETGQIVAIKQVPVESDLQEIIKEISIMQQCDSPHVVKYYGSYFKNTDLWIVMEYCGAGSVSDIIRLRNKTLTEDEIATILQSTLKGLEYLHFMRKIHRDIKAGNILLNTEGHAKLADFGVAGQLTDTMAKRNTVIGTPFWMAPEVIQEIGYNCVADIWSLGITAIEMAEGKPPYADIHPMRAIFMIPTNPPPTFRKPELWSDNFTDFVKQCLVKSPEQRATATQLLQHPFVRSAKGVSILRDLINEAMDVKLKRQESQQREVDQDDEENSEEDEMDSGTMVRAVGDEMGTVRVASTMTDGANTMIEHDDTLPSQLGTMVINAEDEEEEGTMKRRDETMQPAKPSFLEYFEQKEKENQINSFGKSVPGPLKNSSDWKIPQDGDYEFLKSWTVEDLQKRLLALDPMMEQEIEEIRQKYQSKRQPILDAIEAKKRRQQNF
The data set can be described thus: Inhibition of MST1 at 5 uM.

Data set [3] concerns the target T2, NUAK family SNF1-like kinase 1 (Homo sapiens) (UniProt O60285).
T2 sequence (whole entry): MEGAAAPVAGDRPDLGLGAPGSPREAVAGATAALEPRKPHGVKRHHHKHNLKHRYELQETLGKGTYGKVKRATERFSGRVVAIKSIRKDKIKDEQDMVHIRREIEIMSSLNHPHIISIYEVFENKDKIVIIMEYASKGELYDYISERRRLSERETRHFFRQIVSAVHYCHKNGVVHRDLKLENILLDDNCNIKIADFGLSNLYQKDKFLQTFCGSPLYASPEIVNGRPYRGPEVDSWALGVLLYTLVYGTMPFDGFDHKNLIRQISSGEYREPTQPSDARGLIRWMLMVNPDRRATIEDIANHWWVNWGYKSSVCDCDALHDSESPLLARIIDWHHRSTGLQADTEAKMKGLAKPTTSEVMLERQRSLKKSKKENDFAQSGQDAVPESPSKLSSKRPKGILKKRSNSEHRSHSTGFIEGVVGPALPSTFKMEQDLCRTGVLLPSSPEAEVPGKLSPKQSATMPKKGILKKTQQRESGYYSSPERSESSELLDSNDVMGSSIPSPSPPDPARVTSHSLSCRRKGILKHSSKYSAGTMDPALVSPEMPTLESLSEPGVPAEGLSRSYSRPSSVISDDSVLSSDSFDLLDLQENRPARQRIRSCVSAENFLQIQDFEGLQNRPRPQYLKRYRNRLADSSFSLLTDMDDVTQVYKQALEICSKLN
The experiment in a line: Inhibition of ARK5 at 1 uM.

In data set [4] the target is Tyrosine-protein kinase JAK2 (Homo sapiens) (UniProt O60674). The data set can be described thus: Inhibition of JAK2 at 5 uM.
Tyrosine-protein kinase JAK2 (Homo sapiens), sequence (O60674 whole entry): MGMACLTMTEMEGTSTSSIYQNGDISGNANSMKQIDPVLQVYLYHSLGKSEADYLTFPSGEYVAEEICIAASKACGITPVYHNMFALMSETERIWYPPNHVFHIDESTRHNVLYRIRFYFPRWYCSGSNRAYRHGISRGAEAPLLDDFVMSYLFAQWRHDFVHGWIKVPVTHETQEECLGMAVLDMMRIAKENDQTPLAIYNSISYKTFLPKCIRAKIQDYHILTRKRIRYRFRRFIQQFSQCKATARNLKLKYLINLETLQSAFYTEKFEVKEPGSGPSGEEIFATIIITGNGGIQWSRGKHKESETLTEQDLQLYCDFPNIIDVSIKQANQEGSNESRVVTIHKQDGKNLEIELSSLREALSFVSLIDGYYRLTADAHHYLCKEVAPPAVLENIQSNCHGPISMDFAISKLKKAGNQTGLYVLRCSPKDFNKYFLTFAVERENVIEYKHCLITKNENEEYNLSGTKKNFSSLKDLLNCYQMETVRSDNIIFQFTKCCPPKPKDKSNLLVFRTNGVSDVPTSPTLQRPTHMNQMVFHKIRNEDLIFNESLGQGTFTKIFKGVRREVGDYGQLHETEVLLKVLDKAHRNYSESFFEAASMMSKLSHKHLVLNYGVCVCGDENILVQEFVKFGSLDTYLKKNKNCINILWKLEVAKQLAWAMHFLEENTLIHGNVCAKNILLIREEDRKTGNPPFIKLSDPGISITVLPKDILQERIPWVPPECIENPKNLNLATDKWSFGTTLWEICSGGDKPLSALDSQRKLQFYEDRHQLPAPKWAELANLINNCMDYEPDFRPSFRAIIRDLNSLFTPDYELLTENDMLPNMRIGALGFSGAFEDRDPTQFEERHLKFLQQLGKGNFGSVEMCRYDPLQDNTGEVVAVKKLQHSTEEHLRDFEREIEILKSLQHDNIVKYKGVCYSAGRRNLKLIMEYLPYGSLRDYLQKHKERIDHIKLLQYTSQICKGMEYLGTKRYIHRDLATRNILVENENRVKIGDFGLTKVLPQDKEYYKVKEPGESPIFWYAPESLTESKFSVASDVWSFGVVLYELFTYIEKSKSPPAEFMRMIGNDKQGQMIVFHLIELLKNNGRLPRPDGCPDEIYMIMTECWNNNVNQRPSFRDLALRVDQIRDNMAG
Data set [5] addresses PI3-kinase p110-delta/p85-alpha (Homo sapiens, UniProt O00329). The experiment in a line: Inhibition of human PI3Kdelta (p110delta/p85alpha) by ADP accumulation based HTRF assay. It counts as protein-complex assay. To be noted: read-out: Ki(app).
The target in data set [6] is Mitogen-activated protein kinase 8 (Homo sapiens) (UniProt P45983). The data set can be described thus: Inhibition of JNK1 at 1 uM.
Mitogen-activated protein kinase 8 (Homo sapiens), sequence (P45983 whole entry): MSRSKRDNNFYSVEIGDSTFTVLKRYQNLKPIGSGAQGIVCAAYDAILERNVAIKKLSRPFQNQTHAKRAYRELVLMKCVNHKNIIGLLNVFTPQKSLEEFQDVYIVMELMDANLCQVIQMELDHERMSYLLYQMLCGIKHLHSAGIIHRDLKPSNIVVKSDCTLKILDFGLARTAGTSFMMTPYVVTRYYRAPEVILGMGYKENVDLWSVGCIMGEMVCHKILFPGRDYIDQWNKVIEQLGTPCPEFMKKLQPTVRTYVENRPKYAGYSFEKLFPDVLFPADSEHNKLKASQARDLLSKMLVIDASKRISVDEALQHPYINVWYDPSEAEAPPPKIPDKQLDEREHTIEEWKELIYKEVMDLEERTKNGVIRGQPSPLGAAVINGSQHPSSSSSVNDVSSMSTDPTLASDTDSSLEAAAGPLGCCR
Data set [7] deals with Serine/threonine-protein kinase mTOR (Homo sapiens, UniProt P42345). The data set can be described thus: Inhibition of mTOR.
Data set [8] concerns the target PI3K p110 beta/p85 alpha (Homo sapiens, UniProt P42338). The experiment in a line: Inhibition of human PI3Kbeta (p110beta/p85alpha) by ADP accumulation based HTRF assay. It counts as protein-complex assay. The following applies: read-out: Ki(app).
Data set [9] addresses Phosphatidylinositol 4,5-bisphosphate 3-kinase catalytic subunit alpha isoform (Homo sapiens, UniProt P42336, E545K). The data set can be described thus: Inhibition of human PI3Kalpha E545K mutant by ADP accumulation based HTRF assay. The following applies: read-out: Ki(app).
The target in data set [10] is Phosphatidylinositol 4,5-bisphosphate 3-kinase catalytic subunit alpha isoform (Homo sapiens, UniProt P42336, H1047R). The experiment in a line: Inhibition of human PI3Kalpha H1047R mutant by ADP accumulation based HTRF assay. The following applies: read-out: Ki(app).
In data set [11] the target is Phosphatidylinositol 4,5-bisphosphate 3-kinase catalytic subunit alpha isoform (Homo sapiens, UniProt P42336, E542K). The data set can be described thus: Inhibition of human PI3Kalpha E542K mutant by ADP accumulation based HTRF assay. To be noted: read-out: Ki(app).
Data set [12] concerns Mus musculus. The experiment in a line: Antitumor activity in tamoxifen-induced mouse tumor model assessed as tumor growth inhibition at 50 mg/kg/day, po for 3 weeks by computed tomography. Type of data set: functional. The following applies: 504 h, read-out: GI.
Data set [13] deals with Mus musculus. The experiment in a line: In-vivo inhibition of PI3Kalpha-mediated AKT Ser 473 phosphorylation in lung of tamoxifen-induced mouse tumor model at 50 mg/kg, po measured 2 to 4 hrs post dose. Type of data set: functional.
Data set [14] has as its system Mus musculus. The data set can be described thus: Antitumor activity in tamoxifen-induced mouse tumor model assessed as reduction in lung [18F]FDG uptake at 50 mg/kg/day, po for 3 weeks by PET-CT method. It counts as functional, organism-based.
Data set [15] can be described thus: Clearance in BALB-C mouse. The following applies: in vivo. Type of data set: ADME, organism-based.
In data set [16] the test system is Mus musculus. The experiment in a line: Antitumor activity in tamoxifen-induced mouse tumor model assessed as reduction in lung metabolic activity at 50 mg/kg/day, po for 3 weeks by [18F]FDG uptake based PET-CT method. It counts as functional, organism-based.
The nature of data set [17]: Oral bioavailability in BALB-C mouse. It counts as ADME, organism-based. To be noted: in vivo.

pIC50, pKi: −log10 of the molar value. Activity calls are given as the source filed them. The calls are words filed in the database; no cut-off is given here.

PI3K p110 beta/p85 alpha, sequence (P27986 whole entry, canonical isoform): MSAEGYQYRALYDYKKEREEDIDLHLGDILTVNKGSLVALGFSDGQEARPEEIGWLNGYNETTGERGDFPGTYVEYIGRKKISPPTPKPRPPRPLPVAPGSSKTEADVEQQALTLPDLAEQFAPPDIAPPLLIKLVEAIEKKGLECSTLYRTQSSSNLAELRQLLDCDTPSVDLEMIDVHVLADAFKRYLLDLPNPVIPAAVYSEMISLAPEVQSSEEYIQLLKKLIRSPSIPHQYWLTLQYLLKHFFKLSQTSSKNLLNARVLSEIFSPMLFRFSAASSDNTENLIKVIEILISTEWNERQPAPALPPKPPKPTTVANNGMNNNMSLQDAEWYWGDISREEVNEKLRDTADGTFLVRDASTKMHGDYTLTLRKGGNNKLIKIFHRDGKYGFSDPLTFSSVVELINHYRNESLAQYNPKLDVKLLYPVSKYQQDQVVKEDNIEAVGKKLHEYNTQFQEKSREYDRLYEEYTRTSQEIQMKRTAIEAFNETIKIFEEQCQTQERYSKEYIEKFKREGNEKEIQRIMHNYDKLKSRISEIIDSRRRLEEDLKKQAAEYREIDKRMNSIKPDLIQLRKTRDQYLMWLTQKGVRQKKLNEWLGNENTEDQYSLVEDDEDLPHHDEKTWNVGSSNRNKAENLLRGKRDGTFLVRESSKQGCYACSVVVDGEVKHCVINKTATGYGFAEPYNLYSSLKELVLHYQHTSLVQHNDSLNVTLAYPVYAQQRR
PI3K p110 beta/p85 alpha, sequence (P42338 whole entry, canonical isoform): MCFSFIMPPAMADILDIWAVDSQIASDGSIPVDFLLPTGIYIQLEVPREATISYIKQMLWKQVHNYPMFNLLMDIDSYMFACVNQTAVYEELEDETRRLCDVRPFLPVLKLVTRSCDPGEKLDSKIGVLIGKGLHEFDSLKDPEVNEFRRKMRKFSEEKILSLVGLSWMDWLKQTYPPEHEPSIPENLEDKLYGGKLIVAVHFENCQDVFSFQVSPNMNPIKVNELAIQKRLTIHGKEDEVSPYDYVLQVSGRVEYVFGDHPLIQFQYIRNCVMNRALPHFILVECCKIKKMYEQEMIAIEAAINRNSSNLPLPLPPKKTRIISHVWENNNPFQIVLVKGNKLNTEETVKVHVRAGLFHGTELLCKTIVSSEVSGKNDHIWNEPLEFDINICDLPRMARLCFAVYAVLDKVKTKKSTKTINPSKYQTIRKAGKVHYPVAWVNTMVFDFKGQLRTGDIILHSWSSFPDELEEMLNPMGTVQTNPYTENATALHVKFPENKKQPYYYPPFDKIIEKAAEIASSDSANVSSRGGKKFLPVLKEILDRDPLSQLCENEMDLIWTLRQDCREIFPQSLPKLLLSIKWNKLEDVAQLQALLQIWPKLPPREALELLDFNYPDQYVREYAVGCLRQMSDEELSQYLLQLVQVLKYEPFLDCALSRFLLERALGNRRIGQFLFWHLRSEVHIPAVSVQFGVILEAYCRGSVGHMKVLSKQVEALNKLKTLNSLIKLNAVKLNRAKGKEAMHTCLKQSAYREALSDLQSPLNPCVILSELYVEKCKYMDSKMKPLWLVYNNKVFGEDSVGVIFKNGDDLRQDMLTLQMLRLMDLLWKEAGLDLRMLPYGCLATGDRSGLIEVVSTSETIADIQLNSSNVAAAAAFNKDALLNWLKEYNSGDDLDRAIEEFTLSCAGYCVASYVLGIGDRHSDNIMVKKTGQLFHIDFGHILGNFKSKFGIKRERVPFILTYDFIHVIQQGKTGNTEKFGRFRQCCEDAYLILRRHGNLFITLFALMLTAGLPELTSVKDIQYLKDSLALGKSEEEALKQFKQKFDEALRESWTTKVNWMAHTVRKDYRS

Consider `Cc1c(CN2CCN(S(C)(=O)=O)CC2)nc2c(N3CCOCC3)nc(-c3cnc(N)nc3)cn12`, for which the pKi (as a rule, the Ki on a negative log10 scale, so that one unit is a factor of ten) in [1] was 7.22; in data set [5], 7.81; in data set [8], 6.69. Moreover, the inhibition in [2], in data set [3], in [4] and in data set [6] was less than 30% each time. Besides, the pIC50 (usually −log10 of the IC50, conventionally taken in molar units) in [7] is 5.90.
Turning to `CS(=O)(=O)N1CCN(Cc2cn3c(Cl)c(-c4cnc(N)nc4)nc(N4CCOCC4)c3n2)CC1`, the pKi in [9] is 8.76; in [1], 7.08; in data set [10], 8.51; in data set [11], 8.56; in [8] it was 6.67. Besides, the inhibition in [2], in data set [3], in [4] and in data set [6] was less than 30% throughout. In data set [7], this compound gave a pIC50 of 5.24.
As for `Cc1nc(N)ncc1-c1cn2cc(CN3CCN(S(C)(=O)=O)CC3)nc2c(N2CCOCC2)n1`, the inhibition in [2], in [3], in data set [4] and in data set [6] was less than 30% each time.
Turning to `CS(=O)(=O)N1CCN(Cc2nc3c(N4CCOCC4)nc(-c4cnc(N)nc4)cn3c2Br)CC1`, the inhibition in [2], in data set [3], in [4] and in [6] was less than 30% throughout. In [7], this compound gave a pIC50 of 5.29.
As to `CS(=O)(=O)N1CCN(Cc2cn3cc(-c4cnc(N)nc4)nc(N4CCOCC4)c3n2)CC1`, in data set [12], the inhibition in vivo at 50 mg/kg/day came to 51%. In data set [13], this compound registered an inhibition in vivo at 50 mg/kg of more than 50%. Also, the outcome in data set [14] and in data set [16] was Active. Further, the clearance (commonly a measure of how efficiently the substance is removed, as volume per time) in data set [15] was 10 mL/min/kg. For the same compound, the inhibition in data set [2], in data set [3], in data set [4] and in data set [6] was less than 30% each time. Besides, in data set [17], the bioavailability – broadly, the share of a dose that reaches the circulation, judged against a reference dose that is usually intravenous – amounted to 90%. This compound gave a pIC50 in data set [7] of 5.31.
